Laboratory results as given in patent US9000174B2, “4-phenylsulfonamidopiperidines as calcium channel blockers” (Purdue Pharma L.P., priority 2004, dated 2015).
Counter-ions that a name gives are not always drawn.

Target: T1, L-type calcium channel (LTCC) (Rattus norvegicus, UniProt P22002)
T1 construct: differentiated A7r5 cells were trypsinized, then seeded on tissue culture treated 96-well clear-bottom black plates; endogenous in cells; host or cells: differentiated A7r5 cells (ATCC)
Assay: FLIPR calcium mobilization (and/or electrophysiological) assay for L-type calcium channel
Format: cell-based
Settings: calcium mobilization and/or electrophysiological in vitro assay; differentiated A7r5 cells, 90 mM KCl
Procedure: A7r5 (ATCC) cells were maintained and routinely cultured in A7r5 growth medium consisting of Dulbecco's Modified Eagles Medium containing 10% FBS, 100 U/mL penicillin, 100 μg/mL streptomycin, 4 mM L-glutamine, and 0.15% sodium bicarbonate. 80-90% confluent flasks of cells were differentiated using the following differentiation medium: A7r5 Growth Medium plus 1 mM dibutyryl cyclic AMP (Sigma). Cells were differentiated for 8 days by replacing differentiation medium every 2-3 days.
One day prior to performing this assay, differentiated A7r5 cells were trypsinized, then seeded on tissue culture treated 96-well clear-bottom black plates (Becton Dickinson, Franklin Lakes, N.J.) at a dilution of 1:1 from a confluent T150 cm^2 flask. On the day of the assay, the plates were washed with A7r5 wash buffer (127 mM NaCl, 2 mM MgCl2, 700 μM NaH2PO4, 5 mM CaCl2, 5 mM NaHCO3, 8 mM HEPES, 10 mM glucose, pH 7.4), then loaded with 0.1 mL of A7r5 wash buffer containing Fluo-4 (3 μM final concentration, Molecular Probes, Eugene, Oreg.). After 1 hour, the cells were washed with 0.1 mL A7r5 wash buffer and resuspended in 0.05 mL A7r5 assay buffer that was composed of A7r5 wash buffer plus 50 μM valinomycin (Sigma). Plates were then transferred to a FLIPR^96 for assay. The FLIPR measured basal Fluo-4 fluorescence for 15 seconds, then added 0.05 mL of each compound tested diluted in A7r5 assay buffer at final concentrations ranging from about 846 pM to about 17 μM. Fluo-4 fluorescence was then measured for 5 minutes. 0.1 mL KCl agonist dissolved in A7r5 assay buffer was then added to the cells to produce a final concentration of 90 mM KCl, and fluorescence was measured for another 45 seconds. Data were collected over the entire time course and analyzed using Excel, Graph Pad Prism, or Activity Base software.

IC50 | Compound
> 20000 nM | N[C@@H](C(=O)N1CCC(N(C2CC2)S(=O)(=O)c2cccc(C(F)(F)F)c2)CC1)C1CCCCC1 [(2R) N-[1-(2-Amino-2-cyclohexylethanoyl)piperidin-4-yl]-N-cyclopropyl-3-trifluoromethylbenzenesulfonamide]

Target: T2, N-type calcium channel (NTCC) (Homo sapiens, UniProt Q00975)
T2 construct: endogenous in cells; host or cells: differentiated IMR32 cells (ATCC)
T2 sequence (Q00975 whole entry): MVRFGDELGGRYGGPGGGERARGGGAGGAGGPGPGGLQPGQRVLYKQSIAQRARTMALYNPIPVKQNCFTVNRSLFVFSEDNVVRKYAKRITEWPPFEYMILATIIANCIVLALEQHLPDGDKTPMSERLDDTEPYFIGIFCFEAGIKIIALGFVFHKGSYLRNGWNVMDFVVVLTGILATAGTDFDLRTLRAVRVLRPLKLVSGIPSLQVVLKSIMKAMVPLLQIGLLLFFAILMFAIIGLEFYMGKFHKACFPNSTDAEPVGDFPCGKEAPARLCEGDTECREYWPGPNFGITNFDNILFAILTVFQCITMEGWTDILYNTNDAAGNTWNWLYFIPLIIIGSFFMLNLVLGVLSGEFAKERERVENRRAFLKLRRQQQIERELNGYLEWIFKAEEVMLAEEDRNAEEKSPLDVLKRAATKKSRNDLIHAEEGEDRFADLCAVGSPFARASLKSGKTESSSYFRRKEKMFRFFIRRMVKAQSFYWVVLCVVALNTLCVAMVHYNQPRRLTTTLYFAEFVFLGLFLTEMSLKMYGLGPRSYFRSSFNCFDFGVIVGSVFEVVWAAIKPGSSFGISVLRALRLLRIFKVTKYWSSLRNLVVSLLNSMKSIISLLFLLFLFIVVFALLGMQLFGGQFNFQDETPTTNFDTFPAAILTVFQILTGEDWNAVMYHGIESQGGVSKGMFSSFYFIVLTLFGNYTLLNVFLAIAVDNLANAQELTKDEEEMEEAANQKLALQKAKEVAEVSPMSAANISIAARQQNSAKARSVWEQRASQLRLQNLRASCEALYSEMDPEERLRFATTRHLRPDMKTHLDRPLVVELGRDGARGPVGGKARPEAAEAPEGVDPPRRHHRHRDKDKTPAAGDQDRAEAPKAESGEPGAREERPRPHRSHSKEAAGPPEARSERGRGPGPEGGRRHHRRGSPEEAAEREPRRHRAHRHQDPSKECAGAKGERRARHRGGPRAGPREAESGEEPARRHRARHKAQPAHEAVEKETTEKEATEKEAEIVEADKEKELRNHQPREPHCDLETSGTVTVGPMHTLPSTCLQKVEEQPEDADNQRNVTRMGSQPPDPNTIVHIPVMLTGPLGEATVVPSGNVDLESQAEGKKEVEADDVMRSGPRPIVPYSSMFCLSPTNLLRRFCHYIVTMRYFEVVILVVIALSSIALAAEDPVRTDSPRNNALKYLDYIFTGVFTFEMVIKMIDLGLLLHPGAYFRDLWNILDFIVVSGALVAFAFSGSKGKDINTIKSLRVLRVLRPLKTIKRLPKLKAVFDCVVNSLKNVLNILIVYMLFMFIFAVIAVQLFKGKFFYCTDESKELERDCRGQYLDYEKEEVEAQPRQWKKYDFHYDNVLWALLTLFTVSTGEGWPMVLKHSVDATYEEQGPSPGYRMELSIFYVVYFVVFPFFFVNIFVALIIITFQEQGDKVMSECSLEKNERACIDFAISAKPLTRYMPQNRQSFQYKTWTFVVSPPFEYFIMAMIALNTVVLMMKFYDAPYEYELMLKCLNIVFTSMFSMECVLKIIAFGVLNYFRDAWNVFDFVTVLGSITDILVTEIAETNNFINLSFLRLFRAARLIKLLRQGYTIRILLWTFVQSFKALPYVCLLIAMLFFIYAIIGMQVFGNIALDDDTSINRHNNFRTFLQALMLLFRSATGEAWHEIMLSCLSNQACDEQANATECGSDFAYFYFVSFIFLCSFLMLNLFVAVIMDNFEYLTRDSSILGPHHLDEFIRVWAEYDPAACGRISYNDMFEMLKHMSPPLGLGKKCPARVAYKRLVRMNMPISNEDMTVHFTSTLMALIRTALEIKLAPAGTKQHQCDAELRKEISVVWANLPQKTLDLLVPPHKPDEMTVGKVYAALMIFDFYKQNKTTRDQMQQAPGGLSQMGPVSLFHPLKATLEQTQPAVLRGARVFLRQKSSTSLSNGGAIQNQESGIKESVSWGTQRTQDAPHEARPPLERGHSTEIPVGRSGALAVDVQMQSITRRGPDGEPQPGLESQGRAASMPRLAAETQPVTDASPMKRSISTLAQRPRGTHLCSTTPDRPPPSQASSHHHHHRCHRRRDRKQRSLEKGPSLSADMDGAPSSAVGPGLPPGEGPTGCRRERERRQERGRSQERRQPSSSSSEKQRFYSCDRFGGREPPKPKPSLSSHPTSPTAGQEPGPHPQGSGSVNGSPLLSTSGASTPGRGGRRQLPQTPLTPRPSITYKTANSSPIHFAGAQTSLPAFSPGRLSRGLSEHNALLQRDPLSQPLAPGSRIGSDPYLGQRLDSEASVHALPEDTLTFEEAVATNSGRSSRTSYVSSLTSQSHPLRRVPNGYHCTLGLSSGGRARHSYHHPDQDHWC
T2 sequence (P54284 whole entry partner): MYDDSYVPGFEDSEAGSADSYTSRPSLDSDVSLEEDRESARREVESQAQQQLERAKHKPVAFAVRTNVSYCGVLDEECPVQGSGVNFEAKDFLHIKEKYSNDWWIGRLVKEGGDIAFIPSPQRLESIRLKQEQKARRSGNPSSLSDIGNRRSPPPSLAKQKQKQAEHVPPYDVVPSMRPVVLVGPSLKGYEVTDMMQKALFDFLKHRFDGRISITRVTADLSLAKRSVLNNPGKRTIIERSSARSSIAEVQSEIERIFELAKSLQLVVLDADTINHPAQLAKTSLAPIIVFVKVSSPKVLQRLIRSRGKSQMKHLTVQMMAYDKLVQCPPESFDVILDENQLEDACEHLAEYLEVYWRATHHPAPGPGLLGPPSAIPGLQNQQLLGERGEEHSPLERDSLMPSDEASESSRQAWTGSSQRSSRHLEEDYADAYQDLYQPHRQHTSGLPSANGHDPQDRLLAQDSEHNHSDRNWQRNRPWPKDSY
T2 sequence (P54289 25-956 partner limits assumed): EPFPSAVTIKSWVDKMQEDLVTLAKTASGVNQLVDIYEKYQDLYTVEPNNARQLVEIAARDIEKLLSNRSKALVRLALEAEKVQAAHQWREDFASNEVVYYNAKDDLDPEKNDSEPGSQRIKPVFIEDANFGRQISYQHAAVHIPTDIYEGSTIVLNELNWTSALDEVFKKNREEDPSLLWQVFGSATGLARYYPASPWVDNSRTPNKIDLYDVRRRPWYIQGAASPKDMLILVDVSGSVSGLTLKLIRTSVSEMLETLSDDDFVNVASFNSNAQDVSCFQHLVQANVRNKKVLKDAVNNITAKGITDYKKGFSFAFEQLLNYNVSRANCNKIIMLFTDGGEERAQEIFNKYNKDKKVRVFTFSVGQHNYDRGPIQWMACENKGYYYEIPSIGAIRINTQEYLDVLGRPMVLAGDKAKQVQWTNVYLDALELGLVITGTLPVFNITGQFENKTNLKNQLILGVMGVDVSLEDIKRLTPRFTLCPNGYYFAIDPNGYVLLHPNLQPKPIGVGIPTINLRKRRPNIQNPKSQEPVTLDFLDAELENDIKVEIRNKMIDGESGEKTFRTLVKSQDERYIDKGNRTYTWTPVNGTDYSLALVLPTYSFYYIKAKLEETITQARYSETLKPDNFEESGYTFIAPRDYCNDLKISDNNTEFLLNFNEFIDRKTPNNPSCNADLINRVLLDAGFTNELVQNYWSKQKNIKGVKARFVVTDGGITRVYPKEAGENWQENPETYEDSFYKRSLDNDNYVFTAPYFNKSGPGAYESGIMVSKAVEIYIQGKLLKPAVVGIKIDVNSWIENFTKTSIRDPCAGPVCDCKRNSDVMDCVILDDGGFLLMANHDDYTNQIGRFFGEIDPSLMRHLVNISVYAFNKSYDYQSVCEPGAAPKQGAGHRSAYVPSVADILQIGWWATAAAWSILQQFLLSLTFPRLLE
T2 sequence (P54289 957-1103 partner limits assumed): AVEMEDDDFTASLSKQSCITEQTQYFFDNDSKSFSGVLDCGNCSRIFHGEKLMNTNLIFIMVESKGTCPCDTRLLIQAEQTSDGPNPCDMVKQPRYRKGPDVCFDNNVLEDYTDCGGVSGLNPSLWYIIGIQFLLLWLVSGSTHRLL
Assay: FLIPR calcium mobilization (and/or electrophysiological) assay for N-type calcium channel
Format: cell-based
Settings: calcium mobilization and/or electrophysiological in vitro assay; differentiated IMR32 cells, 90 mM KCl, 5 μM nitrendipine
Procedure: Unless noted otherwise, cell culture reagents were purchased from Life Technologies of Rockville, Md. IMR32 cells (American Type Culture Collection, ATCC, Manassas, Va.) were routinely cultured in growth medium consisting of minimum essential medium containing 10% fetal bovine serum (FBS, Hyclone, Logan, Utah), 100 U/mL penicillin, 100 μg/mL streptomycin, 2 mM L-glutamine, 1 mM sodium pyruvate, and 1×MEM non-essential amino acids. 80-90% confluent flasks of cells were differentiated using the following differentiation medium: Growth medium plus 1 mM dibutyryl cyclic AMP (Sigma, St. Louis, Mo.), and 2.5 μM bromodeoxyuridine (Sigma). Cells were differentiated for 8 days by replacing differentiation medium every 2-3 days.
One day prior to performing this assay, differentiated IMR32 cells were treated with 1× CellStripper, and seeded on poly-D-lysine-coated 96-well clear-bottom black plates (Becton Dickinson, Franklin Lakes, N.J.) at 200,000 cells/well. On the day of the assay, the cell plates were washed with IMR32 buffer (127 mM NaCl, 1 mM KCl, 2 mM MgCl2, 700 μM NaH2PO4, 5 mM CaCl2, 5 mM NaHCO3, 8 mM HEPES, 10 mM glucose, pH 7.4), then pre-stimulated with KCl and loaded as follows: 0.05 mL of IMR32 buffer, 0.05 mL of each compound tested diluted in IMR32 buffer containing 20 μM nitrendipine (Sigma), and 0.1 mL KCl dissolved in IMR32 buffer, plus Fluo-4 were added (3 μM final concentration, Molecular Probes, Eugene, Oreg.). Final test compound concentrations ranged from about 846 pM to about 17 μM, final nitrendipine concentration was 5 μM, and final KCl concentration was 90 mM. After 1 hour, the cells were washed twice with 0.05 mL of each compound tested in nitrendipine-containing IMR32 buffer (no KCl or Fluo-4), and then replaced with 0.1 mL of each compound tested in nitrendipine-containing IMR32 buffer. Plates were then transferred to a Fluorimetric Imaging Plate Reader (FLIPR^96, Molecular Devices, Inc., Sunnyvale, Calif.) for assay. The FLIPR measured basal Fluo-4 fluorescence for 315 seconds (i.e., 5 minutes and 15 seconds), then added 0.1 mL KCl agonist dissolved in IMR32 buffer and measured fluorescence for another 45 seconds. Final test compound concentrations on the cells after FLIPR read ranged from about 846 pM to about 17 μM, final nitrendipine concentration was 5 μM, and final KCl concentration was 90 mM. Data were collected over the entire time course and analyzed using Excel, Graph Pad Prism (version 3.02, Graph Pad, San Diego, Calif.), or Activity Base (version 5.1, IDBS, Parsippany, N.J.) software.
N-type calcium channel expressing HEK-293 cells were created in two stages. Stage 1 was created as follows. The rat α1b, and β3 cDNA expression constructs (2.5 μg each) were co-transfected into human embryonic kidney (HEK-293) cells by Lipofectamine Plus reagent (Invitrogen), as per manufacturer's instructions. 24 hours later, cells were split in limiting dilution into multiple 96-well plates in selection media containing 20 μg/mL blasticidin and 500 μg/mL geneticin, and incubated for 3 weeks at 37° C., 5% CO2, 95% humidity. Plates containing ≦1 clone per well were cultured until wells positive for single clones were confluent. Individual clones were then arrayed into columns of a destination 96-well plate, and partly split into 6-well plates for culture maintenance. Array plates were washed once with IMR32 buffer and cells loaded for 1 hour with 0.1 mL of IMR32 buffer containing Fluo-4 (3 μM final concentration, Molecular Probes). Then they were washed twice with 0.1 mL of IMR32 buffer, and replaced with 0.1 mL IMR32 buffer. Plates were then transferred to a FLIPR^96 for assay. The FLIPR measured basal Fluo-4 fluorescence for 315 seconds, then added 0.1 mL KCl agonist dissolved in IMR32 buffer and measured fluorescence for another 45 seconds. Final KCl concentration was 90 mM. Data were collected over the entire time course and analyzed using Excel, Graph Pad Prism, or Activity Base software. […]

Compound | IC50
CN[C@@H](CC(C)C)C(=O)N1CCC(N(CCOC)S(=O)(=O)c2cccc(C(F)(F)F)c2)CC1 [(2S) N-(2-methoxyethyl)-N-[1-(4-methyl-2-methylaminopentanoyl)-piperidin-4-yl]-3-trifluoromethylbenzenesulfonamide] | 1220 nM
CN[C@@H](CC(C)C)C(=O)N1CCC(N(C2CCCC2)S(=O)(=O)c2cccc(C(F)(F)F)c2)CC1 [(2S) N-Cyclopentyl-N-[1-(4-methyl-2-methylamino-pentanoyl)piperidin-4-yl]-3-trifluoromethylbenzenesulfonamide fumarate] | 1560 nM
CN[C@@H](CC(C)C)C(=O)N1CCC(N(C2CC2)S(=O)(=O)c2cccc(OC(F)F)c2)CC1 [(2S) N-Cyclopropyl-N-[1-(4-methyl-2-methylaminopentanoyl)-piperidin-4-yl]-3-difluoromethoxybenzenesulfonamide] | 2440 nM
CN[C@@H](CC(C)C)C(=O)N1CCC(N(CC2CC2)S(=O)(=O)c2cccc(C(F)(F)F)c2)CC1 [(2S) N-Cyclopropylmethyl-N-[1-(4-methyl-2-methylamino-pentanoyl)piperidin-4-yl]-3-trifluoromethylbenzenesulfonamide fumarate] | 1310 nM
CN[C@@H](CC(C)C)C(=O)N1CCC(N(C2CCOC2)S(=O)(=O)c2cccc(C(F)(F)F)c2)CC1 (stereo partly drawn) [(2S) N-[1-(4-Methyl-2-methylaminopentanoyl)piperidin-4-yl]-N-(tetrahydrofuran-3-yl)-3-trifluoromethylbenzenesulfonamide fumarate] | 1840 nM
CN[C@@H](CC(C)C)C(=O)N1CCC(N(C2CC2)S(=O)(=O)c2cccc(C#N)c2)CC1 [(2S) N-cyclopropyl-N-[1-(4-methyl-2-methylaminopentanoyl)-piperidin-4-yl]-3-cyanobenzenesulfonamide] | 4270 nM
CN[C@@H](CC(C)C)C(=O)N1CCC(N(C2CC2)S(=O)(=O)c2cccc(F)c2)CC1 [(2S) N-cyclopropyl-N-[1-(4-methyl-2-methylaminopentanoyl)-piperidin-4-yl]-3-fluorobenzenesulfonamide] | 4660 nM
CN[C@@H](CC(C)C)C(=O)N1CCC(N(C2CC2)S(=O)(=O)c2cccc(C)c2)CC1 [(2S) N-cyclopropyl-N-[1-(4-methyl-2-methylaminopentanoyl)-piperidin-4-yl]-3-methylbenzenesulfonamide] | 8290 nM
CN[C@@H](CC(C)C)C(=O)N1CCC(N(C2CC2)S(=O)(=O)c2cccc([N+](=O)[O-])c2)CC1 [(2S) N-cyclopropyl-N-[1-(4-methyl-2-methylaminopentanoyl)-piperidin-4-yl]-3-nitrobenzenesulfonamide] | 3620 nM
CN[C@@H](CC(C)C)C(=O)N1CCC(N(CCC(C)C)S(=O)(=O)c2cccc(C(F)(F)F)c2)CC1 [(2S) N-i-pentyl-N-[1-(4-methyl-2-methylaminopentanoyl)piperidin-4-yl]-3-trifluoromethylbenzenesulfonamide] | 1260 nM
CCCC=CC(=O)N1CCC(N(C2CC2)S(=O)(=O)c2cccc(C(F)(F)F)c2)CC1 [N-Cyclopropyl-N-(1-hex-2-enoyl-piperidin-4-yl)-3-trifluoromethylbenzenesulfonamide] | 1210 nM
NC1(C(=O)N2CCC(N(C3CC3)S(=O)(=O)c3cccc(C(F)(F)F)c3)CC2)CCCC1 [N-[1-(1-Aminocyclopentan-1-carbonyl)piperidin-4-yl]-N-cyclopropyl-3-trifluoromethylbenzenesulfonamide] | 1080 nM
O=C(CCC(=O)N1CCC(N(C2CC2)S(=O)(=O)c2ccccc2)CC1)c1ccc(F)cc1 [N-cyclopropyl-N-{1-[4-(4-fluorophenyl)-4-oxobutanoyl]piperidin-4-yl}benzenesulfonamide] | 6210 nM

Further compounds by falling IC50, results first:

IC50 | Compound
7290 nM | CN[C@@H](CC(C)C)C(=O)N1CCC(N(C2CC2)S(=O)(=O)c2cccc(OC)c2)CC1 [(2S) N-cyclopropyl-N-[1-(4-methyl-2-methylaminopentanoyl)-piperidin-4-yl]-3-methoxybenzenesulfonamide]
5060 nM | CN[C@@H](CC(C)C)C(=O)N1CCC(N(C[C@@H]2CCCO2)S(=O)(=O)c2cccc(C(F)(F)F)c2)CC1 [(2S) N-[1-(4-methyl-2-methylaminopentanoyl)piperidin-4-yl]-N-(tetrahydrofuran-2-yl)methyl-3-trifluoromethylbenzenesulfonamide]
2630 nM | CN[C@@H](CC(C)C)C(=O)N1CCC(N(C2CC2)S(=O)(=O)c2cccc(Cl)c2)CC1 [(2S) N-cyclopropyl-N-[1-(4-methyl-2-methylaminopentanoyl)-piperidin-4-yl]-3-chlorobenzenesulfonamide]
2230 nM | CN[C@@H](CC(C)C)C(=O)N1CCC(N(CCO)S(=O)(=O)c2cccc(C(F)(F)F)c2)CC1 [(2S) N-(2-Hydroxyethyl)-N-[1-(4-methyl-2-methylamino-pentanoyl)piperidin-4-yl]-3-trifluoromethylbenzenesulfonamide hydrochloride]
1580 nM | O=C(C1Cc2ccccc2CN1)N1CCC(N(C2CC2)S(=O)(=O)c2cccc(C(F)(F)F)c2)CC1 (stereo not drawn) [N-Cyclopropyl-N-[1-(1,2,3,4-tetrahydroisoquinolin-3-carbonyl)piperidin-4-yl]-3-trifluoromethylbenzenesulfonamide]
1380 nM | CN1CCCC1C(=O)N1CCC(N(C2CC2)S(=O)(=O)c2cccc(C(F)(F)F)c2)CC1 (stereo not drawn) [N-Cyclopropyl-N-[1-(N-methylpyrrolidin-2-carbonyl)piperidin-4-yl]-3-trifluoromethylbenzenesulfonamide]
440 nM | N[C@@H](C(=O)N1CCC(N(C2CC2)S(=O)(=O)c2cccc(C(F)(F)F)c2)CC1)C1CCCCC1 [(2R) N-[1-(2-Amino-2-cyclohexylethanoyl)piperidin-4-yl]-N-cyclopropyl-3-trifluoromethylbenzenesulfonamide]
